System: HCV replication
Experiment: Replicon Assay (Huh-lucubineo-ET cells, luciferase readout)
Format: cell-based
Conditions: Hepatitis C virus; ET (Huh-lucubineo-ET) HCV replicon cell line; luciferase activity 48-72 hours after compound addition; 6 dilutions
Procedure, shortened: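 Huh-lucubineo-ET cells stably carrying a firefly luciferase-ubiquitin-neo/NS3-5B ET replicon (adaptive mutations E1202G, T1280I, K1846T) were plated 24 h before compound, then treated at 5 or 50 μM or six 3-fold dilutions. Luciferase read 48-72 h later; % inhibition vs no-compound control, EC50/TC50 from Hill-equation fit.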

| SMILES | EC50 [nM] |
| --- | --- |
| CC(C)Cc1ccc(-c2ccc(Cn3cc4nc(-c5cccc(F)c5F)nc-4cn3)nn2)c(C(F)(F)F)c1 [Compound 332, 2-(2,3-Difluoro-phenyl)-5-[6-(4-isobutyl-2-trifluoromethyl-phenyl)-pyridazin-3-ylmethyl]-5H-imidazo[4,5-d]pyridazine] | 19 |
| CCCOc1ccc(-c2ccc(Cn3cc4nc(-c5cccc(F)c5F)nc-4cn3)cn2)c(C(F)(F)F)c1 [Compound 333, 2-(2,3-Difluoro-phenyl)-5-[6-(4-propoxy-2-trifluoromethyl-phenyl)-pyridin-3-ylmethyl]-5H-imidazo[4,5-d]pyridazine] | 10 |
| COc1ccc(-c2ccc(Cn3cc4nc(-c5cccc(F)c5F)nc-4cn3)c(N)c2)c(C(F)(F)F)c1 [Compound 334, 4-[2-(2,3-Difluoro-phenyl)-imidazo[4,5-d]pyridazin-5-ylmethyl]-4′-methoxy-2′-trifluoromethyl-biphenyl-3-ylamine] | 20 |
| Nc1cc(C(F)(F)F)ccc1-c1ccc(Cn2cc3nc(-c4cccc(F)c4F)nc-3cn2)cn1 [Compound 335, 2-{5-[2-(2,3-Difluoro-phenyl)-imidazo[4,5-d]pyridazin-5-ylmethyl]-pyridin-2-yl}-5-trifluoromethyl-phenylamine] | 2390 |
| Cc1ccc(-c2ccc(C(F)(F)F)cc2C(F)(F)F)c(Cn2cc3nc(-c4cccc(F)c4F)nc-3cn2)n1 [Compound 336, 5-[3-(2,4-Bis-trifluoromethyl-phenyl)-6-methyl-pyridin-2-ylmethyl]-2-(2,3-difluoro-phenyl)-5H-imidazo[4,5-d]pyridazine] | ≥ 50000 |
| Cc1nc(Cn2cc3nc(-c4cccc(F)c4F)nc-3cn2)ccc1-c1ccc(C(F)(F)F)cc1C(F)(F)F [Compound 337, 5-[5-(2,4-Bis-trifluoromethyl-phenyl)-6-methyl-pyridin-2-ylmethyl]-2-(2,3-difluoro-phenyl)-5H-imidazo[4,5-d]pyridazine] | 166 |
| COc1ccc(-c2ccc(Cn3cc4nc(-c5cccc(F)c5F)nc-4cn3)c[n+]2[O-])c(C(F)(F)F)c1 [Compound 338, 2-(2,3-Difluoro-phenyl)-5-[6-(4-methoxy-2-trifluoromethyl-phenyl)-1-oxy-pyridin-3-ylmethyl]-5H-imidazo[4,5-d]pyridazine] | 1300 |
| CNc1cccc(-c2nc3cnn(Cc4ccc(-c5ccc(C(F)(F)F)cc5C(F)(F)F)nc4)cc-3n2)c1F [Compound 339, (3-{5-[6-(2,4-Bis-trifluoromethyl-phenyl)-pyridin-3-ylmethyl]-5H-imidazo[4,5-d]pyridazin-2-yl}-2-fluoro-phenyl)-methyl-amine] | 14300 |
| N#Cc1cc(C(F)(F)F)ccc1-c1ccc(Cn2cc3nc(-c4cccc(F)c4F)nc-3cn2)cn1 [Compound 340, 2-{5-[2-(2,3-Difluoro-phenyl)-imidazo[4,5-d]pyridazin-5-ylmethyl]-pyridin-2-yl}-5-trifluoromethyl-benzonitrile] | 95 |
| Fc1cccc(-c2nc3cnn(Cc4ccc(Oc5ccc(OC(F)(F)F)cc5)nn4)cc-3n2)c1F [Compound 341, 2-(2,3-Difluoro-phenyl)-5-[6-(4-trifluoromethoxy-phenoxy)-pyridazin-3-ylmethyl]-5H-imidazo[4,5-d]pyridazine] | 6030 |
| COc1ccc(-c2ccc(Cn3cc4nc(-c5cccc(F)c5F)nc-4cn3)c(C(=O)O)c2)c(C(F)(F)F)c1 [Compound 342, 4-[2-(2,3-Difluoro-phenyl)-imidazo[4,5-d]pyridazin-5-ylmethyl]-4′-methoxy-2′-trifluoromethyl-biphenyl-3-carboxylic acid] | ≥ 50000 |
| Fc1cccc(-c2nc3cnn(Cc4ccc(Oc5ccc(C(F)(F)F)cc5C(F)(F)F)cc4)cc-3n2)c1F [Compound 343, 5-[4-(2,4-Bis-trifluoromethyl-phenoxy)-benzyl]-2-(2,3-difluoro-phenyl)-5H-imidazo[4,5-d]pyridazine] | 26900 |
